Data as given in patent US6992064B2, “N-alkylglycine trimeres capable of protecting neurons against excitotoxic aggressions and compositions containing such trimeres” (Diverdrugs, S.L., priority 2000, dated 2006).

How the values were obtained:
[1] = system: primary cultures of rat cerebellum neurones; assay: Neuroprotection of primary cultures of rat cerebellar neurones against excitotoxic aggression (L-glutamate/glycine); type: cell-based; conditions: for decrease of neuronal death: rat cerebellar neurones, 10 μM glycine, prolonged (≧3 h) L-glutamate, read 24 hours post-aggression; for neuroprotector activity (enantiomers versus racemic mixture): primary cultures of cerebellar neurons, L-glutamate 1 mM
Text: The neuroprotector mechanism implies, at least in part, the blocking of the glutamate ionotropic receptors, as is made manifest by the inhibition of the ionic current activated by the NMDA type of glutamatergic receptor agonist expressed in X. laevis ovocites (19,20). An important advantage of these biological tests is that they permit the search for neuroprotectors in functionally active systems, increasing the potentiality of its in vivo use.
Two complementary biological tests were used in order to evaluate the biological activity of the N-alkylglycine trimeres obtained in Example 1.1. The first evaluates the efficiency and power with which said compounds block the ionic current activated by agonists in X. laevis ovocites that express the NMDA receptor. The second, determines the neuroprotector efficiency of the N-alklyglycine trimeres in primary cultures of neurones subjected to an excitotoxic aggression, such as prolonged exposure to L-glutamate and glycine.
It was also observed that the N-alkylglycine trimeres tested protected primary neuronal cultures coming from the cerebellum of rats pre-exposed to 10 μM glycine versus the prolonged exposure (≧3 h) of L-glutamate or N-methyl-D-aspartate at a concentration of […]. The test consists of extracting the cerebellar neurones of baby rats, 7–8 days old, cultivating them in plates in a culture medium supplemented with bovine foetal serum (22). After 13–19 days under culture, the excitotoxic aggression with L-glutamate is performed, monitoring the neuronal death in the absence and presence of the N-alkylglycine trimeres 24 hours post-aggression using two fluorescent dyes: the fluorescent diacetate that indicates the number of viable cells, and the propydium iodine that informs of the number of dead cells (23). As an example, the N-alkylglycine trimere identified as compound [1] decreased a 95% of the neuronal death at a concentration of 30 μg/ml; compound [5] an 85% at 30 μg/ml; compound [23a] a 57% at a concentration of 50 μg/ml, and compound [24] a 60% at 50 μg/ml.
On the other hand, due to the fact that some formula I N-alkylglycine trimeres may be presented as stereoisomers, the possibility that the neuroprotector activity of the racemic mixture preferably corresponded to one of the isomers, was evaluated. For this, the neuroprotector activity of the enantiomers identified as [23b] and [23c] was evaluated, (see Table 1) in primary cultures of cerebellar neurons exposed to excitotoxic aggression, such as the incubation with L-glutamate 1 mM comparing it with the neuroprotector activity of a racemic mixture of said enantiomers. […] Likewise, said power was similar to the one presented by the racemic mixture.

[2] = system: ammonium-induced neurotoxicity in mice; assay: Neurotoxicity model in mice induced by injection of high doses of ammonium (death due to NMDA receptor hyperactivation); type: in vivo; conditions: 0.05–0.1 mg/g intraperitoneal, 10 minutes before 12 mmol/kg ammonium acetate; 24 hours post-injection
Procedure: A neurotoxicity model was used on mice induced by the injection of high doses of ammonium, the result of which is the death of the animal due to the hyperactivation of the NMDA receptor. The test consists in the intraperitoneal injection in mice of an amount of N-alkylglycine trimere of 0.05–0.1 mg/g, followed, after 10 minutes, with an injection of 12 mmol/kg of ammonium acetate. After 24 hours post-injection, the number of dead mice was determined. The N-alkylglycine trimere identified as compound [24] protected 82% of the mice, whilst the N-alkylglycine trimere identified as compound [23a] protected 100% of the animals.

Compound: CCC(C)N(CC(N)=O)C(=O)CN(C(=O)CNCCN1CCCC1)C1CC1 (racemic) [compound [23a], [N-[2-(N-pyrrolidinyl)ethyl]glycyl]-[N-(cyclopropyl)glycyl]-N-((R,S)-sec-butyl)glycinamide]
- decrease of neuronal death ([1]; 50 μg/ml): 57%
- mice protected from death [2]: 100%

Compound: CC[C@@H](C)NC(=O)CN(C(=O)CNCCN1CCCC1)C(=O)CNC1CC1 [[23b], [N-[2-(N-pyrrolidinyl)ethyl]glycyl]-[N-(cyclopropyl)glycyl]-N-((R)-sec-butyl)glycinamide]
- neuroprotector activity (enantiomers versus racemic mixture) [1]: neuroprotectors with equal power

Compound: CC[C@H](C)NC(=O)CN(C(=O)CNCCN1CCCC1)C(=O)CNC1CC1 [[23c], [N-[2-(N-pyrrolidinyl)ethyl]glycyl]-[N-(cyclopropyl)glycyl]-N-((S)-sec-butyl)glycinamide]
- neuroprotector activity (enantiomers versus racemic mixture) [1]: neuroprotectors with equal power

Compound: CCN(CC)CCCN(CC(=O)N(CCNC(C)=O)CC(N)=O)C(=O)CNCCC(c1ccccc1)c1ccccc1 [compound [1]] [[N-[3,3-diphenylpropyl]glycyl]-[N-[3-(N,N-diethylamine)propyl]glycyl]-N-[2-(methylcarbonylamine)ethyl]glycinamide]
- decrease of neuronal death ([1]; 30 μg/ml): 95%

Compound: CCN(CC)CCCN(CC(=O)N(CCNC(C)=O)CC(N)=O)C(=O)CNCCC(c1ccccc1)c1ccccc1 [compound [5]] [[N-[3,3-diphenylpropyl]glycyl]-[N-[3-N,N-diethylamine)propyl]glycyl]-N-[2-(methylcarbonylamine)ethyl]glycinamide]
- decrease of neuronal death ([1]; 30 μg/ml): 85%
